In US20220265590A1, “DIBENZYLAMINES AS AMINO ACID TRANSPORT INHIBITORS” (VANDERBILT UNIVERSITY, priority 2019, published 2022) one finds IC50 data, which are given here for nine molecules.

For experiment [1], the system named is HEK293 cells. The experiment is described as follows: Viability (Cell Titer, CellTiter-Glo). Type of experiment: cell-based. The note with it: Homo sapiens, 48 h incubation, 96-well plate. The protocol:
Viability (Cell Titer) was evaluated using a commercially available chemiluminescent reagents (CellTiter-Glo, Promega Corp. G7572) in 96-well plate format according to the manufacturers protocol. Cells were exposed to either vehicle or test agent at the indicated concentrations and incubated for a period of 48 h. Subsequently, CellTiter-Glo reagent was added and the plates were read using a plate reader (BioTek Synergy 4) with standard settings.

Experiment [2] relates to HEK293 cells. The experiment is described as follows: Glutamine uptake inhibition assay (3H-labeled glutamine accumulation in live cells). In kind it is cell-based. The conditions noted are these: Homo sapiens, 15 minutes incubation with 3H-GLN (500 nM), assay buffer pH 6, triplicate, read-out: ^3H Glut IC50. The protocol: Twenty-four hours prior to assay, HEK293 cells were seeded at a density of 12K cells per well into a 96 well plate (coated with poly-D-Lysine). […] Accumulation of 3H-labeled glutamine (3H-GLN) in live cells was assessed by incubation for 15 minutes with vehicle or test reagent at the concentrations indicated. The final concentration of 3H-GLN was 500 nM. Each compound was evaluated in triplicate. For the assay, cells were rinsed with assay buffer (pH 6) three times (100 uL). Compounds were transferred in a single-add protocol and incubated for 15 minutes with 3H-GLN. After the uptake period, the supernatant was removed and cell monolayers were washed 3× with 100 μl assay buffer. Subsequently, cells were lysed with 50 μl 1M NaOH and 150 μl scintillation liquid was added to each well. The plate was incubated at room temperature for 20 minutes, transferred to 4° C. storage overnight, and read the next day using a top-count plate reader (Perkin Elmer).

Usually IC50 stands for the concentration needed to halve the response being measured. Turning to `N[C@@H](CCN(Cc1ccccc1OCc1ccc(Cl)cc1)Cc1ccccc1Oc1ccc(Cl)cc1)C(=O)O` [Cpd. No. 11, (S)-2-amino-4-((2-((4-chlorobenzyl)oxy)benzyl)(2-(4-chlorophenoxy)benzyl)amino)butanoic acid], the IC50 is 12.7 µM in the experiment on HEK293 cells [1] and < 100 µM in the experiment on HEK293 cells [2].

For `COc1cccc(COc2ccccc2CN(CC[C@H](N)C(=O)O)Cc2ccccc2Oc2ccc(Cl)cc2)c1` [Cpd. No. 20, (S)-2-amino-4-((2-(4-chlorophenoxy)benzyl)(2-((3-methoxybenzyl)oxy)benzyl)amino) butanoic acid], the concentration for half-maximal inhibition (IC50) with HEK293 cells [1] was found to be 13.9 µM; in the experiment with HEK293 cells [2] it was 3.19 µM.

In the case of `Cc1cccc(COc2ccccc2CN(CC[C@H](N)C(=O)O)Cc2ccccc2Oc2ccc(Cl)cc2)c1` [Cpd. No. 21, (S)-2-amino-4-((2-(4-chlorophenoxy)benzyl)(2-((3-methylbenzyl)oxy)benzyl)amino) butanoic acid], the IC50 in the experiment with HEK293 cells [1] amounted to 28.9 µM; with HEK293 cells [2], 25.1 µM.

In the case of `N[C@@H](CCN(Cc1ccccc1OCc1ccccc1F)Cc1ccccc1Oc1ccccc1F)C(=O)O` [compound 7, (S)-2-amino-4-((2-((2-fluorobenzyl)oxy)benzyl)(2-(2-fluorophenoxy)benzyl)amino)butanoic acid], the IC50 came out at 18.7 µM in the experiment on HEK293 cells [1] and 94.2 µM with HEK293 cells [2].

Regarding `N[C@@H](CCN(Cc1ccccc1OCc1ccc(F)cc1)Cc1ccccc1Oc1ccccc1F)C(=O)O` [compound 8, (S)-2-amino-4-((2-((4-fluorobenzyl)oxy)benzyl)(2-(2-fluorophenoxy)benzyl)amino)butanoic acid], in the experiment on HEK293 cells [2], the IC50 came out at 117 µM.

With `N[C@@H](CCN(Cc1ccccc1OCc1ccccc1F)Cc1ccccc1Oc1ccc(Cl)cc1)C(=O)O` [compound 10, (S)-2-amino-4-((2-(4-chlorophenoxy)benzyl)(2-((2-fluorobenzyl)oxy)benzyl)amino)butanoic acid], in the experiment on HEK293 cells [2], the IC50 is 43 µM.

Consider `COc1ccc(Oc2ccccc2CN(CC[C@H](N)C(=O)O)Cc2ccccc2OCc2ccc(F)cc2)cc1` [compound 13, (S)-2-amino-4-((2-((4-fluorobenzyl)oxy)benzyl)(2-(4-methoxyphenoxy)benzyl)amino)butanoic acid], for which the IC50 with HEK293 cells [2] is 29 µM.

As to `COc1ccc(Oc2ccccc2CN(CC[C@H](N)C(=O)O)Cc2ccccc2OCc2ccc(Cl)cc2)cc1` [compound 14, (S)-2-amino-4-((2-((4-chlorobenzyl)oxy)benzyl)(2-(4-methoxyphenoxy)benzyl)amino)butanoic acid], the IC50 in the experiment on HEK293 cells [2] was 164 µM.

Regarding `N[C@@H](CCN(Cc1ccccc1OCc1ccc(F)cc1)Cc1ccccc1Oc1ccc(Cl)cc1)C(=O)O` [compound 15, (S)-2-amino-4-((2-(4-chlorophenoxy)benzyl)(2-((4-fluorobenzyl)oxy)benzyl)amino)butanoic acid], the 50% inhibitory concentration (IC50) in the experiment with HEK293 cells [2] was found to be 31.4 µM.
